Assay results taken from patent publication US6921667B2, “Methods for direct detection of individual methotrexate metabolites” (Prometheus Laboratories, Inc., priority 2003, dated 2005).

Assay: Red blood cell methotrexate polyglutamate concentrations in patients on low-dose methotrexate, by HPLC fluorometry with post-column photo-oxidation
Format: in vivo, human
Settings: single patient on 17.5 mg weekly methotrexate for at least 3 months; FIG. 4A; packed red blood cells
Procedure: The liquid chromatograph was an Agilent 1100 HPLC chemstation system composed of a quaternary pump, a system controller, an autoinjector, a sample cooler kept at 4° C., and a fluorometer. […] Methotrexate polyglutamates were detected with post-column derivatization using a photochemical reactor unit (Aura Industries; New York, N.Y.) equipped with an elongated 254 nm low pressure mercury ultraviolet lamp and containing a 1/16″ outer diameter TEFLON™ tubing (internal diameter 0.25 mm) assembled as a knitted coil and connected on-line between the analytical column and fluorometer. The knitted coil was extended lengthwise through the photochemical reactor unit; all but a portion of the elongated lamp was masked with foil such that only a segment of the knitted coil was irradiated. In particular, the lamp was masked such that only 1 meter of the coil was irradiated with the lamp, which at a flow rate of 1 ml/min corresponded to 3 seconds irradiation. Methotrexate polyglutamate photolytic products were measured at an excitation wavelength of 274 nm and an emission wavelength of 464 nm, unless otherwise indicated. The retention times described herein were measured from time of injection to time of detection at the post-reactor unit fluorometer. […]
Methotrexate polyglutamate photolytic products were analyzed at an excitation wavelength of 274 nm and an emission wavelength of 464 nm. […]

CN(Cc1cnc2nc(N)nc(N)c2n1)c1ccc(C(=O)N[C@@H](CCC(=O)O)C(=O)O)cc1 [MTXPG1, 4-amino-10-methylpteroylglutamic acid]
concentration in red blood cell sample: 27 nM
